Measured values reported in BindingDB's records for doi:10.7270/Q2TX3CTT (Broad Institute, 2010).

Target: Glycogen synthase kinase-3 beta (Homo sapiens, UniProt P49841)
Assay: GSK3beta kinase inhibitor potency, dose response, biochemical, luminescence, cell-free homogeneous, retest (AID 434954)

Sequence of Glycogen synthase kinase-3 beta (P49841 whole entry): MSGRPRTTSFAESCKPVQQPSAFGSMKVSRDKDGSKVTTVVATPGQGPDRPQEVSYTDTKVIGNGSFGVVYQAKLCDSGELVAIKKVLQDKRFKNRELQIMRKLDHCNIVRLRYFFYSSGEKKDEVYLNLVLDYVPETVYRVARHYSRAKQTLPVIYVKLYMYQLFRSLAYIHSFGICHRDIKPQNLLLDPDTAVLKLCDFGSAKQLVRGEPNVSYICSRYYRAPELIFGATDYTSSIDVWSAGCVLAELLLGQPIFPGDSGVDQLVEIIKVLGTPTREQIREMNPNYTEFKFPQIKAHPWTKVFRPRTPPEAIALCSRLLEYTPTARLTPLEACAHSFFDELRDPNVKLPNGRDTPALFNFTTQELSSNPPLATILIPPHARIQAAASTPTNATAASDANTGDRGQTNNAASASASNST

| EC50 | Structure (SMILES) |
| --- | --- |
| > 300 µM | O=C(c1cc(COc2ccc(F)cc2F)on1)N1CCCC(c2ccccc2)C1 (stereo not given) [[5-[[2,4-bis(fluoranyl)phenoxy]methyl]-1,2-oxazol-3-yl]-(3-phenylpiperidin-1-yl)methanone] |
| > 300 µM | COc1ccc(C(=O)c2coc3ccc(O)c(CN4CCCC4)c23)cc1 [[5-hydroxy-4-(1-pyrrolidinylmethyl)-3-benzofuranyl]-(4-methoxyphenyl)methanone] |
| > 300 µM | COc1ccc(C(=O)c2coc3ccc(O)c(CN4CCCCC4)c23)cc1 [[5-hydroxy-4-(piperidin-1-ylmethyl)-1-benzofuran-3-yl]-(4-methoxyphenyl)methanone] |
| > 300 µM | CCOc1ccc2ncc(C(=O)c3ccc(OC)cc3)c(N3CCN(CC)CC3)c2c1 [[6-ethoxy-4-(4-ethylpiperazin-1-yl)quinolin-3-yl](4-methoxyphenyl)methanone] |
| > 300 µM | O=C(/[O+]=N/[CH-]c1ccc(N2CCCCC2)c([N+](=O)[O-])c1)c1cccc(Cl)c1 [[(3-nitro-4-piperidin-1-yl-phenyl)methylideneamino] 3-chloranylbenzoate] |
| > 300 µM | Cc1ccc(C(=O)/[O+]=N/[CH-]c2ccc(N3CCCCC3)c([N+](=O)[O-])c2)cc1 [[(3-nitro-4-piperidin-1-ylphenyl)methylideneamino] 4-methylbenzoate] |
| > 300 µM | COc1ccc(-c2nn(-c3ccccc3)cc2C=NNC(N)=S)cc1OC [[[3-(3,4-dimethoxyphenyl)-1-phenyl-4-pyrazolyl]methylideneamino]thiourea] |
| > 300 µM | COc1c(CC=C(C)C)cc([C@@H]2CC(=O)c3c(O)cc(O)cc3O2)cc1CC=C(C)C [abyssinone-V-4'-O-methyl ether] |
| > 300 µM | CC(=O)Oc1ccc2occ(C(=O)c3ccccc3)c2c1 [acetic acid (3-benzoyl-5-benzofuranyl) ester] |
| > 300 µM | COc1ccc(C2CC(=O)c3c(O)cc(O)cc3O2)c(CC=C(C)C)c1OC (stereo not given) [antiarone F] |
| 19.2 µM | Cc1cn(C2OC(COC(=O)c3ccccc3)C(O)C2O)c(=O)[nH]c1=O (stereo not given) [benzoic acid [3,4-dihydroxy-5-(5-methyl-2,4-dioxo-1-pyrimidinyl)-2-oxolanyl]methyl ester] |
| 40.7 µM | CC1=Nc2ncnn2C(c2ccco2)C1C(=O)OCc1ccccc1 (stereo not given) [benzyl 7-(furan-2-yl)-5-methyl-1,7-dihydro-[1,2,4]triazolo[1,5-a]pyrimidine-6-carboxylate] |
| > 300 µM | CCCCOC(=O)c1ccc(O)cc1 [butyl 4-hydroxybenzoate] |
| > 300 µM | CCCCOC(=O)C1C(C)=Nc2ncnn2C1c1cc(OC)c(OC)cc1OC (stereo not given) [butyl 5-methyl-7-(2,4,5-trimethoxyphenyl)-4,7-dihydro[1,2,4]triazolo[1,5-a]pyrimidine-6-carboxylate] |
| 4.25 µM | CCCCOC(=O)C1C(C)=Nc2ncnn2C1c1cccc(OC)c1OC (stereo not given) [butyl 7-(2,3-dimethoxyphenyl)-5-methyl-4,7-dihydro[1,2,4]triazolo[1,5-a]pyrimidine-6-carboxylate] |
| > 300 µM | CCOC(=O)c1ccc2ncc(C(=O)OCC)c(Nc3ccc(N4CCOCC4)cc3)c2c1 [diethyl 4-[(4-morpholin-4-ylphenyl)amino]quinoline-3,6-dicarboxylate] |
| > 300 µM | COC(=O)C(C(=O)OC)c1ccc(NC(=O)c2cccc(Cl)c2)cc1 [dimethyl 2-{4-[(3-chlorobenzoyl)amino]phenyl}malonate] |
| > 300 µM | Cc1nn(-c2ccccn2)c2c1C(c1ccsc1)C1C(=O)CCCC1=N2 (stereo not given) [ethanol;3-methyl-1-(2-pyridinyl)-4-(3-thiophenyl)-4,6,7,8-tetrahydro-2H-pyrazolo[3,4-b]quinolin-5-one] |
| > 300 µM | CCOC(=O)c1c(S(=O)(=O)NCC(=O)NCc2ccc(C)cc2)c(C)n(C)c1C [ethyl 1,2,5-trimethyl-4-[[2-[(4-methylphenyl)methylamino]-2-oxoethyl]sulfamoyl]pyrrole-3-carboxylate] |
| 71.5 µM | CCOC(=O)c1nnn(-c2nonc2N)c1CN1CCc2ccccc2C1 [ethyl 1-(4-amino-1,2,5-oxadiazol-3-yl)-5-(3,4-dihydro-1H-isoquinolin-2-ylmethyl)triazole-4-carboxylate] |
